Where “and” joins values, the source holds several entries; their conditions need not be identical. Equal entries are not always repeated. Each block holds one compound with its values, some of them ahead of it.
Tested on: NCI-H196 complex spheroid viability
Assay: Anticancer human tumor NCI-H196 cell line growth inhibition [LSD1];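 further: spheroids exposed to agents for 7 days before readout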;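 on viability, T/C: 100% = DMSO vehicle control viability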
Settings: for viability, T/C: stronger effect = lower value
How it was run: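 Multicellular complex spheroids of tumor cells with human endothelial cells (HUVEC) and mesenchymal stem cells; the LSD1 inhibitor iadademstat was combined with standard-of-care or investigational agents. Top concentration at or near clinical Cmax, half-log dilutions; final DMSO ≤0.25%.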

[1] = curve of first compound, second compound 0.1 µM
[2] = curve of first compound, second compound 0.316 µM
[3] = curve of first compound, second compound 1 µM
[4] = curve of first compound, second compound 3.16 µM
[5] = curve of first compound, second compound 10 µM

SMILES: Nc1ccn(C2OC(CO)C(O)C2(F)F)c(=O)n1 (configuration not stated) + NC1CC1c1ccc(-c2cccc(O)c2)cc1
IC50 [1]: > 300 nM
IC50 [2]: > 300 nM
IC50 [3]: > 300 nM
IC50 [4]: > 300 nM
IC50 [5]: > 300 nM
viability, T/C (second compound 0.1 µM, first compound 0.000949 µM): 119%
viability, T/C (second compound 0.1 µM, first compound 0.003 µM): 105%
viability, T/C (second compound 0.1 µM, first compound 0.00949 µM): 97.4%
viability, T/C (second compound 0.1 µM, first compound 0.03 µM): 65.2%
viability, T/C (second compound 0.1 µM, first compound 0.0949 µM): 68.9%
viability, T/C (second compound 0.1 µM, first compound 0.3 µM): 62.6%
viability, T/C (second compound 0.316 µM, first compound 0.000949 µM): 106%
viability, T/C (second compound 0.316 µM, first compound 0.003 µM): 107%
viability, T/C (second compound 0.316 µM, first compound 0.00949 µM): 79.7%
viability, T/C (second compound 0.316 µM, first compound 0.03 µM): 66.8%
viability, T/C (second compound 0.316 µM, first compound 0.0949 µM): 67.3%
viability, T/C (second compound 0.316 µM, first compound 0.3 µM): 67.7%
viability, T/C (second compound 1 µM, first compound 0.000949 µM): 108%
viability, T/C (second compound 1 µM, first compound 0.003 µM): 108%
viability, T/C (second compound 1 µM, first compound 0.00949 µM): 75.6%
viability, T/C (second compound 1 µM, first compound 0.03 µM): 68.7%
viability, T/C (second compound 1 µM, first compound 0.0949 µM): 61.6%
viability, T/C (second compound 1 µM, first compound 0.3 µM): 71.2%
viability, T/C (second compound 3.16 µM, first compound 0.000949 µM): 117%
viability, T/C (second compound 3.16 µM, first compound 0.003 µM): 104%
viability, T/C (second compound 3.16 µM, first compound 0.00949 µM): 96.4%
viability, T/C (second compound 3.16 µM, first compound 0.03 µM): 76.2%
viability, T/C (second compound 3.16 µM, first compound 0.0949 µM): 67.2%
viability, T/C (second compound 3.16 µM, first compound 0.3 µM): 72%
viability, T/C (second compound 10 µM, first compound 0.000949 µM): 111%
viability, T/C (second compound 10 µM, first compound 0.003 µM): 98.2%
viability, T/C (second compound 10 µM, first compound 0.00949 µM): 91.3%
viability, T/C (second compound 10 µM, first compound 0.03 µM): 71.9%
viability, T/C (second compound 10 µM, first compound 0.0949 µM): 72.5%
viability, T/C (second compound 10 µM, first compound 0.3 µM): 69.3%

SMILES: CC[C@@]1(O)C(=O)OCc2c1cc1n(c2=O)Cc2cc3c(CN(C)C)c(O)ccc3nc2-1 + NC1CCC(NC2CC2c2ccccc2)CC1
IC50 [1]: > 100 nM
IC50 [2]: > 100 nM
IC50 [3]: > 100 nM
IC50 [4]: > 100 nM
IC50 [5]: > 100 nM
viability, T/C (second compound 0.1 µM, first compound 0.000316 µM): 96.8%
viability, T/C (second compound 0.1 µM, first compound 0.001 µM): 96.4%
viability, T/C (second compound 0.1 µM, first compound 0.00316 µM): 103%
viability, T/C (second compound 0.1 µM, first compound 0.01 µM): 107%
viability, T/C (second compound 0.1 µM, first compound 0.0316 µM): 115%
viability, T/C (second compound 0.1 µM, first compound 0.1 µM): 94.1%
viability, T/C (second compound 0.316 µM, first compound 0.000316 µM): 96%
viability, T/C (second compound 0.316 µM, first compound 0.001 µM): 90.2%
viability, T/C (second compound 0.316 µM, first compound 0.00316 µM): 105%
viability, T/C (second compound 0.316 µM, first compound 0.01 µM): 118%
viability, T/C (second compound 0.316 µM, first compound 0.0316 µM): 110%
viability, T/C (second compound 0.316 µM, first compound 0.1 µM): 101%
viability, T/C (second compound 1 µM, first compound 0.000316 µM): 89.7%
viability, T/C (second compound 1 µM, first compound 0.001 µM): 105%
viability, T/C (second compound 1 µM, first compound 0.00316 µM): 98.6%
viability, T/C (second compound 1 µM, first compound 0.01 µM): 101%
viability, T/C (second compound 1 µM, first compound 0.0316 µM): 98.4%
viability, T/C (second compound 1 µM, first compound 0.1 µM): 93.7%
viability, T/C (second compound 3.16 µM, first compound 0.000316 µM): 88.7%
viability, T/C (second compound 3.16 µM, first compound 0.001 µM): 95.3%
viability, T/C (second compound 3.16 µM, first compound 0.00316 µM): 91%
viability, T/C (second compound 3.16 µM, first compound 0.01 µM): 100%
viability, T/C (second compound 3.16 µM, first compound 0.0316 µM): 111%
viability, T/C (second compound 3.16 µM, first compound 0.1 µM): 102%
viability, T/C (second compound 10 µM, first compound 0.000316 µM): 94.6%
viability, T/C (second compound 10 µM, first compound 0.001 µM): 89.7%
viability, T/C (second compound 10 µM, first compound 0.00316 µM): 98%
viability, T/C (second compound 10 µM, first compound 0.01 µM): 109%
viability, T/C (second compound 10 µM, first compound 0.0316 µM): 105%
viability, T/C (second compound 10 µM, first compound 0.1 µM): 95.3%

IC50 (curve of compound): > 1000 nM
SMILES: COc1cc(Nc2ncc3c(n2)-c2ccc(Cl)cc2C(c2c(F)cccc2OC)=NC3)ccc1C(=O)O
viability, T/C (compound 0.00316 µM): 96.3% and 91.4%
viability, T/C (compound 0.01 µM): 103% and 105%
viability, T/C (compound 0.0316 µM): 114% and 99.4%
viability, T/C (compound 0.1 µM): 119% and 109%
viability, T/C (compound 0.316 µM): 132% and 120%
viability, T/C (compound 1 µM): 118% and 121%

— PubChem BioAssay AID1918958 (Molecular Pharmacology Branch, DTP, NCI, 2023)
